Entries after “also recorded” stand apart in the source; their conditions may differ.
What was measured:
EAE mice = assay: Rotarod behavioral assay in EAE mice; assay type: in vivo, mouse; design: key to Disability: Rotarod performance: ‘+’ indicate marker was significantly (p ≤ 0.05) increased in treatment group relative to vehicle; ‘−’ indicates marker was significantly (p ≤ 0.05) decreased in treatment group relative to vehicle; ○: ‘o’ indicate marker did not change relative to vehicle; settings: for Disability: Rotarod performance: vs vehicle; for rotarod performance (motor function): therapeutic s.c. from day 8 (postEAE)
Protocol: Rotarod behavioral assay: Motor behavior was tested up to two times per week for each mouse using a rotarod apparatus (Med Associates, Inc., St. Albans, Vt.). Briefly, animals were placed on a rotating horizontal cylinder for a maximum of 200 seconds. The amount of time the mouse remained walking on the cylinder without falling was recorded. Each mouse was tested on a speed of 3-30 rpm and given three trials for any given day. The three trials were averaged to report a single value for an individual mouse, and averages were then calculated for all animals within a given treatment group (Moore et al., 2014). The first two trial days prior to immunization served as practice trials.
As a complementary assay of motor function, mice were tested on a rotarod device following a previously described protocol (Moore et al., 2014). […] (FIG. 2B).

[1] = system: CD45+ leukocyte, Iba1+ macrophage/microglia, GFAP+ astrocytes; assay: CD45, Iba1 and GFAP staining in thoracic spinal cord dorsal column of EAE mice; assay type: in vivo, mouse; design: key to CNS Cellular Inflammation: CD45 / CNS Cellular Inflammation: Iba1 / CNS Cellular Inflammation: GFAP: ‘+’ indicate marker was significantly (p ≤ 0.05) increased in treatment group relative to vehicle; ‘−’ indicates marker was significantly (p ≤ 0.05) decreased in treatment group relative to vehicle; ○: ‘o’ indicate marker did not change relative to vehicle; settings: vs vehicle; for CD45 fluorescence intensity, spinal cord dorsal column / GFAP fluorescence intensity, spinal cord dorsal column: therapeutic treatment (postEAE)
Text: Immunohistochemistry: Before histological staining, 40-μm free floating sections were thoroughly washed with PBS to remove residual sodium azide (Crawford et al., 2010). Sections were permeabilized with 0.3% Triton X-100 in ix PBS and 15% normal goat serum (NGS). Myelination, gliosis and immune markers were visualized by the following primary antibodies at a concentration of 1:500 unless otherwise noted: chicken anti-myelin basic protein (MBP; polyclonal, EMD Millipore, Darmstadt, Germany), chicken anti-glial fibrillary acidic protein (GFAP; EMD Millipore, Darmstadt), rat anti-cluster of differentiation 45 (CD45; clone 30-F11, BD Biosciences, San Diego, Calif.), mouse anti-ionized calcium-binding adapter molecule 1/allograft inflammatory factor-1 (Iba1/AIF1; clone 20A12.1, EMD Millipore, Darmstadt, Germany), goat anti-CXCL1 (R&D systems; Minneapolis, Minn.) at 1:250 and mouse anti-adenomatous polyposis coli (CC-1; clone CC-1, Genetex, Irvine, Calif.). Secondary staining was performed using polyclonal fluorophore-conjugated antibodies from ThermoFisher Scientific at a concentration of 1:500 unless otherwise specified: goat anti-chicken Alexa Fluor® 555 (AF555), goat anti-rabbit Alexa Fluor® 647 (AF647), donkey anti-chicken IgY Cy3 (EMD Millipore), goat anti-rat IgG AF647, goat anti-rabbit IgG Cy3 (EMD Millipore), goat anti-mouse IgG2b AF647 and rabbit anti-goat AF647. Nuclei were counter stained with 4′,6-Diamidino-2-phenylindole (DAPI, 2 ng/ml; Molecular Probes) for 10 minutes after incubation with secondary antibodies, and sections were mounted on glass slides, allowed to dry, and coverslipped with Fluoromount G mounting medium (Thermo Fisher Scientific) for imaging.
Confocal Microscopy: Thoracic spinal cord dorsal and ventral column sections, as well as CC were imaged using an Olympus BX61 confocal microscope (Olympus America Inc., Center Valley, Pa.) using a 10× and 40× objective. Z-stack projections were compiled using SlideBook 6 software (Intelligent Imaging Innovations, Inc., Denver, Colo.). Immunostaining was quantified using unbiased stereology (Crawford et al., 2010). All images (RGB) were Confocal converted to grayscale, split, and separated by color channel using imageJ version 2.2.0-rc-46/1.50 g (NIH). To avoid experimenter bias, auto-adjustment of brightness and contrast, as well as threshold of staining signal, was carried out by ImageJ. MBP^+, GFAP^+, CD45^+, Iba1^+, CC1^+, and CXCL1^+, staining intensity was measured as percent area of positive immunoreactivity within the region of interest and intensity of signal determined by ImageJ.
To assess whether IndCl analogues exert similar anti-inflammatory effects, CD45+ leukocyte, ionized calcium-binding adapter molecule 1 (Iba1)+ macrophage/microglia, and GFAP+ astrocytes were assessed in thoracic spinal cord dorsal column sections from normal and EAE mice.

primary OPCs/OLs = assay: Primary OPC/OL differentiation and survival (O4, MOG, DAPI staining); assay type: cell-based, mouse; settings: vs vehicle-treated cells, FIG. 12B
Text: FIG. 12A is representative images of primary OPCs/OLs from wells containing differentiating media in the presence of different analogues. OLs were immunostained with an antigen on the surface of oligodendrocyte progenitors, O4, a marker of mature oligodendrocytes, myelin oligodendrocyte glycoprotein, MOG and co-stained with nuclear stain DAPI.
FIG. 12B and FIG. 12C show quantification of the effects of treatment on the number of MOG+ OLs and the number of total cells (DAPI), respectively. […] There were 3 wells/treatment group. n=3 independent experiments were performed. One-Way ANOVA with Dunnett's multiple comparisons test.
The effect on cell differentiation and survival of estrogen receptor § (ERP) ligand IndCl and analogs were investigated. Some estrogen receptor § (ERP) ligands increase primary mouse oligodendrocyte differentiation (FIGS. 12A-12C).

[2] = Uterus to body weight ratio in EAE mice; assay type: in vivo, mouse; settings: therapeutic treatment (postEAE), female EAE mice
Text: Estrogens increase uterine weight by acting primarily through ERα (Hewitt and Korach, 2003).

[3] = Post (therapeutic, postEAE) treatment of EAE mice
[4] = Pre (prophylactic, preEAE) E2 treatment of EAE mice

SMILES	Disability: Rotarod performance (EAE mice; [3])	Disability: Rotarod performance (EAE mice; [4])	CNS Cellular Inflammation: CD45 [1, 3]	CNS Cellular Inflammation: GFAP [1, 3]	CNS Cellular Inflammation: Iba1 [1, 3]	CNS Cellular Inflammation: CD45 [1, 4]	CNS Cellular Inflammation: GFAP [1, 4]	CNS Cellular Inflammation: Iba1 [1, 4]	number of MOG+ OLs (primary OPCs/OLs)	rotarod performance (motor function) (EAE mice)	uterus to body weight ratio [2]	CD45 fluorescence intensity, spinal cord dorsal column [1]	GFAP fluorescence intensity, spinal cord dorsal column [1]
C[C@]12CC[C@@H]3c4ccc(O)cc4CC[C@H]3[C@@H]1CC[C@@H]2O [E2, 170 estradiol]	○	+	−	○	○	−	−	−					
Oc1ccc(-n2nc3ccc(O)cc3c2Cl)cc1 [IndCl, chloroindazole]	○		−	○	−				significant increase	had a tendency to fall from the cylinder abruptly	neither IndCl nor its analogues significantly increased this ratio	similar	
Oc1ccc(-n2nc3ccc(O)cc3c2Cl)c(Cl)c1 [IndCl-o-Cl, 3-chloro-2-(2-chloro-4-hydroxyphenyl)-2H-indazol-5-ol]	+		−	○	○					increase of EAE mice remaining on the rotarod; also recorded: improved rotarod performance		similar	similar
Cc1cc(O)ccc1-n1nc2ccc(O)cc2c1Cl [IndCl-o-Me, 3-chloro-2-(4-hydroxy-2-methylphenyl)-2H-indazol-5-ol]	+		−	○	○					improved rotarod performance; also recorded: greatest improvement in motor function		similar	similar

From patent US11673866B2, “Estrogen receptor beta ligands for the prevention and treatment of multiple sclerosis (MS) and other demyelinating, inflammatory and neurodegenerative diseases” (The Board of Trustees of the University of Illinois, priority 2018, dated 2023)
